From US10669272B2, “Substituted naphthyridinone compounds useful as T cell activators” (BRISTOL-MYERS SQUIBB COMPANY, priority 2018, dated 2020)
Like-named read-outs stand apart in the source and are kept apart here.

Assays:
human DGKζ = molecular target: T1, human DGKζ (Homo sapiens, UniProt Q13574); assay: DGKζ LIPGLO assay (extruded liposome substrate), in vitro DGK inhibition; assay type: biochemical; conditions: read-out: DGKz LIPGLO IC50
T1 construct: TVMV protease cleavage site (C); Hexa-His (C); made in house; host or cells: Sf9 insect cells (baculovirus, Bac-to-Bac)

Human venous whole blood = assay: Human whole blood IFN-γ assay; assay type: cell-based; conditions: human whole blood, read-out: INFg Whole Blood Normalized Agonist EC50;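 further: blood from healthy donors exposed to compound for 1 h before stimulation with anti-CD3 and anti-CD28 at 1 µg/mL each, IFN-γ quantified in supernatant by AlphaLISA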
Experimental: Human Whole Blood IFN-γ Assay
Human venous whole blood (22.5 μL per well), obtained from healthy donors, was pre-treated with compounds for one hour at 37° C. in a humidified 95% air/5% CO2 incubator. The blood was stimulated with 2.5 μL anti-human CD3 and anti-CD28 mAb at a final concentration of 1 μg/mL each for 24 hours at 37° C. IFN-γ in the supernatants was measured using AlphLISA kit (Cat # AL217).

human DGKα = molecular target: T2, human DGKα (Homo sapiens, UniProt P23743); assay: DGKα LIPGLO assay (extruded liposome substrate), in vitro DGK inhibition; assay type: biochemical; conditions: read-out: DGKa LIPGLO IC50
T2 construct: TVMV protease cleavage site (C); Hexa-His (C); made in house; host or cells: Sf9 insect cells (baculovirus, Bac-to-Bac)

[1] = Homo sapiens, 24 h, normalized to 3 μM reference compound with anti-CD3 plus anti-CD28 as 100% activation
[2] = normalized to 3 μM reference compound with anti-CD3 plus anti-CD28 as 100% activation
[3] = Homo sapiens, 24 h, anti-CD3 plus anti-CD28, 24 hours, 3 μM reference compound = 100% activation
[4] = anti-CD3 plus anti-CD28, 24 hours, 3 μM reference compound = 100% activation

T1 sequence (Q13574 with tags, fused parts or gaps isoform Q13574-4): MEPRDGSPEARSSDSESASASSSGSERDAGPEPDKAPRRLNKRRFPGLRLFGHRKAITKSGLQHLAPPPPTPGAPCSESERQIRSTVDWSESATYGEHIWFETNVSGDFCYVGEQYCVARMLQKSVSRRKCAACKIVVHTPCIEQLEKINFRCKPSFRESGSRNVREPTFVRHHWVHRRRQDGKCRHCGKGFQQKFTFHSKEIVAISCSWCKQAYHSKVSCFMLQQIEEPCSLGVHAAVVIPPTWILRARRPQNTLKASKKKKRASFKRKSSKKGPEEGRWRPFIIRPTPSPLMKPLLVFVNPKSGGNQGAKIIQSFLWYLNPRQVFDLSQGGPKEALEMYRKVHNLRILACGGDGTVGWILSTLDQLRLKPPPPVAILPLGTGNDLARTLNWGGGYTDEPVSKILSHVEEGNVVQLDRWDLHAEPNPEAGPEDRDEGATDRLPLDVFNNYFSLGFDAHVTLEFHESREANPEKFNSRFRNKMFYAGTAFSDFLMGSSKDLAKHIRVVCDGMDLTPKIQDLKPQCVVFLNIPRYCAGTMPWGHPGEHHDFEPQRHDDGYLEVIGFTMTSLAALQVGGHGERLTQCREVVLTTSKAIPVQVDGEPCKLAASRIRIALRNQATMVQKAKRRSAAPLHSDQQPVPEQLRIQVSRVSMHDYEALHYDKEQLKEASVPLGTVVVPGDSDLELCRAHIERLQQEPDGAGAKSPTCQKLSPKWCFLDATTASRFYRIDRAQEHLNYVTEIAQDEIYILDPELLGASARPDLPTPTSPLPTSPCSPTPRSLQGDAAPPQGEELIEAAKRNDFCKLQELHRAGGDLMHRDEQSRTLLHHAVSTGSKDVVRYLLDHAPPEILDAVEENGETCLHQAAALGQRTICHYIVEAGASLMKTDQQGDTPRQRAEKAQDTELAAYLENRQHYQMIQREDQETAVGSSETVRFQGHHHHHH
T2 sequence (P23743 with tags, fused parts or gaps): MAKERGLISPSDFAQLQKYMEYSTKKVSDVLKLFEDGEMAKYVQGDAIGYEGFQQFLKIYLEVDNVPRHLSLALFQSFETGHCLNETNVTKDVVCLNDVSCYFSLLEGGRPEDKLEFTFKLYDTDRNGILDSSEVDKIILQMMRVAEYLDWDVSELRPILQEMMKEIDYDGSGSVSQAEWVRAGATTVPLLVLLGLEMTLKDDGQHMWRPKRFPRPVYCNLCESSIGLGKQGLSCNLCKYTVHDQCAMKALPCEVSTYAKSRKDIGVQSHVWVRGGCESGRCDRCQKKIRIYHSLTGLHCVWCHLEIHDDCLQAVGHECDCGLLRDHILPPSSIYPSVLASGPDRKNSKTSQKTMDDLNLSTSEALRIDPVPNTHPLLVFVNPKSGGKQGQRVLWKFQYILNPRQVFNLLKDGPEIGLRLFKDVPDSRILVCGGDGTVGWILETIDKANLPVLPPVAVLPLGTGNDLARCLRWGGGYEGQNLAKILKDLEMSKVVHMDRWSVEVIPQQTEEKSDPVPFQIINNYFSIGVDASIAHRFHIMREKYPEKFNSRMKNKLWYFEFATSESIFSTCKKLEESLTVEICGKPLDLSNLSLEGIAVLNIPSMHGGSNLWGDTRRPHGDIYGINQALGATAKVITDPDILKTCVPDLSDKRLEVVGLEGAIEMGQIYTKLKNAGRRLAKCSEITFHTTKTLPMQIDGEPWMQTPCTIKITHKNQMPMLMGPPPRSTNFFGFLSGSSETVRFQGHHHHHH

Structure (SMILES) | IC50 (human DGKζ; liposome (LIPGLO) assay) [nM] | EC50 (Human venous whole blood; [1]) [nM] | IC50 (human DGKα; liposome (LIPGLO) assay) [nM] | EC50 (Human venous whole blood; [2]) [nM] | IC50 (human DGKζ; DGKζ liposome (LIPGLO) assay) [nM] | EC50 (Human venous whole blood; [3]) [nM] | IC50 (human DGKα; DGKα liposome (LIPGLO) assay) [nM] | EC50 (Human venous whole blood; [4]) [nM]
C[C@@H]1CN(c2cc(=O)n(C)c3ccc(C#N)nc23)[C@@H](C)CN1C(c1ccc(F)cc1)c1cnn2ccccc12 (single isomer, unassigned) [Example 698] | 400 | 1000 | 1700 | – | – | – | – | –
C[C@@H]1CN(c2cc(=O)n(C)c3ccc(C#N)nc23)[C@@H](C)CN1C(c1ccc(F)cc1)c1cnn2ccccc12 (single isomer, unassigned) [Example 699] | 2100 | – | 47000 | 980 | – | – | – | –
C[C@@H]1CN(c2cc(=O)n(C)c3ccc(C#N)nc23)[C@@H](C)CN1C(c1ccc(F)cc1)c1nc(C2CC2)cs1 (single isomer, unassigned) [Example 700] | 95 | – | 380 | 120 | – | – | – | –
C[C@@H]1CN(c2cc(=O)n(C)c3ccc(C#N)nc23)[C@@H](C)CN1C(c1ccc(F)cc1)c1nc(C2CC2)cs1 (single isomer, unassigned) [Example 701] | 32 | – | 210 | 50 | – | – | – | –
C[C@@H]1CN(c2cc(=O)n(C)c3ccc(C#N)nc23)[C@@H](C)CN1C(c1ccc(F)cc1)c1cnn(C)c1 (single isomer, unassigned) [Example 702] | 2900 | – | 1300 | 4700 | – | – | – | –
C[C@@H]1CN(c2cc(=O)n(C)c3ccc(C#N)nc23)[C@@H](C)CN1C(c1ccc(F)cc1)c1cnn(C)c1 (single isomer, unassigned) [Example 703] | 2500 | – | 4000 | 1200 | – | – | – | –
C[C@@H]1CN(c2cc(=O)n(C)c3ccc(C#N)nc23)[C@@H](C)CN1C(c1ccc(F)cc1)c1ccon1 (single isomer, unassigned) [Example 706] | 12000 | – | 1300 | 2900 | – | – | – | –
C[C@@H]1CN(c2cc(=O)n(C)c3ccc(C#N)nc23)[C@@H](C)CN1C(c1ccc(F)cc1)c1cocn1 (single isomer, unassigned) [Example 709] | 14000 | – | 670 | 2100 | – | – | – | –
C[C@@H]1CN(c2cc(=O)n(C)c3ccc(C#N)nc23)[C@@H](C)CN1C(c1ccc(F)cc1)c1nccs1 (single isomer, unassigned) [Example 711] | 3600 | 1700 | 69 | – | – | – | – | –
C[C@@H]1CN(c2cc(=O)n(C)c3ccc(C#N)nc23)[C@@H](C)CN1C(c1ccc(F)cc1)c1nccs1 (single isomer, unassigned) [Example 712] | 720 | – | 320 | 2800 | – | – | – | –
C[C@@H]1CN(c2cc(=O)n(C)c3ccc(C#N)nc23)[C@@H](C)CN1C(c1ccc(F)cc1)c1cnsc1 (single isomer, unassigned) [Example 716] | 20000 | – | 6600 | 3100 | – | – | – | –
C[C@@H]1CN(c2cc(=O)n(C)c3ccc(C#N)nc23)[C@@H](C)CN1C(c1ccc(F)cc1)c1csc(C2CC2)n1 (single isomer, unassigned) [Example 723] | – | – | – | – | 11 | 450 | 310 | –
C[C@@H]1CN(c2cc(=O)n(C)c3ccc(C#N)nc23)[C@@H](C)CN1C(c1ccc(F)cc1)c1csc(C2CC2)n1 (single isomer, unassigned) [Example 724] | – | – | – | – | 98 | – | 84 | 260
C[C@@H]1CN(c2cc(=O)n(C)c3ccc(C#N)nc23)[C@@H](C)CN1C(c1ccc(F)cc1)c1cnn(C2CC2)c1 (single isomer, unassigned) [Example 725] | – | – | – | – | 490 | 1500 | 550 | –
C[C@@H]1CN(c2cc(=O)n(C)c3ccc(C#N)nc23)[C@@H](C)CN1C(c1ccc(F)cc1)c1cnn(C2CC2)c1 (single isomer, unassigned) [Example 726] | – | – | – | – | 59 | – | 1900 | 800
C[C@@H]1CN(c2cc(=O)n(C)c3ccc(C#N)nc23)[C@@H](C)CN1C(c1ccc(F)cc1)c1cnc(C2CC2)s1 (single isomer, unassigned) [Example 727] | – | – | – | – | 1600 | 1300 | 37000 | –

Structure (SMILES) | IC50 (human DGKζ; liposome (LIPGLO) assay) [nM] | EC50 (Human venous whole blood; [1]) [nM] | IC50 (human DGKα; liposome (LIPGLO) assay) [nM] | EC50 (Human venous whole blood; [2]) [nM] | IC50 (human DGKζ; DGKζ liposome (LIPGLO) assay) [nM] | EC50 (Human venous whole blood; [3]) [nM] | IC50 (human DGKα; DGKα liposome (LIPGLO) assay) [nM] | EC50 (Human venous whole blood; [4]) [nM]
C[C@@H]1CN(c2cc(=O)n(C)c3ccc(C#N)nc23)[C@@H](C)CN1C(c1ccc(F)cc1)c1cnc(C2CC2)s1 (single isomer, unassigned) [Example 728] | – | – | – | – | 44 | – | 63 | 920
C[C@@H]1CN(c2cc(=O)n(C)c3ccc(C#N)nc23)[C@@H](C)CN1C(c1ccc(F)cc1)c1cc(C2CC2)on1 (single isomer, unassigned) [Example 729] | – | – | – | – | 1800 | 2200 | 1100 | –
C[C@@H]1CN(c2cc(=O)n(C)c3ccc(C#N)nc23)[C@@H](C)CN1C(c1ccc(F)cc1)c1cc(C2CC2)on1 (single isomer, unassigned) [Example 730] | – | – | – | – | 640 | 870 | 44 | –
C[C@@H]1CN(c2cc(=O)n(C)c3ccc(C#N)nc23)[C@@H](C)CN1C(c1ccc(F)cc1)c1cc(C(C)(C)C)on1 (single isomer, unassigned) [Example 731] | – | – | – | – | 330 | – | 8500 | 950
C[C@@H]1CN(c2cc(=O)n(C)c3ccc(C#N)nc23)[C@@H](C)CN1C(c1ccc(F)cc1)c1cc(C(C)(C)C)on1 (single isomer, unassigned) [Example 732] | – | – | – | – | 150 | – | 44 | 440
Cc1cc(C(c2ccc(F)cc2)N2C[C@H](C)N(c3cc(=O)n(C)c4ccc(C#N)nc34)C[C@H]2C)no1 (single isomer, unassigned) [Example 733] | – | – | – | – | 1500 | – | 4100 | 3500
Cc1cc(C(c2ccc(F)cc2)N2C[C@H](C)N(c3cc(=O)n(C)c4ccc(C#N)nc34)C[C@H]2C)no1 (single isomer, unassigned) [Example 734] | – | – | – | – | 290 | – | 180 | 1400
C[C@@H]1CN(c2cc(=O)n(C)c3ccc(C#N)nc23)[C@@H](C)CN1C(c1ccc(F)cc1)c1nc(C2CCOCC2)no1 (single isomer, unassigned) [Example 740] | – | – | – | – | 1300 | – | 610 | 120
CC(C)c1noc(C(c2ccc(F)cc2)N2C[C@H](C)N(c3cc(=O)n(C)c4ccc(C#N)nc34)C[C@H]2C)n1 (single isomer, unassigned) [Example 747] | – | – | – | – | 69 | – | 300 | 180
CC(C)c1noc(C(c2ccc(F)cc2)N2C[C@H](C)N(c3cc(=O)n(C)c4ccc(C#N)nc34)C[C@H]2C)n1 (single isomer, unassigned) [Example 748] | – | – | – | – | 220 | – | 54 | 410
C[C@@H]1CN(c2cc(=O)n(C)c3ccc(C#N)nc23)[C@@H](C)CN1C(c1ccc(F)cc1)c1nc(C2CCN(C)CC2)no1 (single isomer, unassigned) [Example 752] | – | – | – | – | 4100 | – | 1000 | 1700
CCc1noc(C(c2ccc(F)cc2)N2C[C@H](C)N(c3cc(=O)n(C)c4ccc(C#N)nc34)C[C@H]2C)n1 (single isomer, unassigned) [Example 753] | – | – | – | – | 160 | – | 400 | 640
CCc1noc(C(c2ccc(F)cc2)N2C[C@H](C)N(c3cc(=O)n(C)c4ccc(C#N)nc34)C[C@H]2C)n1 (single isomer, unassigned) [Example 754] | – | – | – | – | 230 | – | 58 | 91
C[C@@H]1CN(c2cc(=O)n(C)c3ccc(C#N)nc23)[C@@H](C)CN1C(c1ccc(F)cc1)c1nc(C2CN(C(=O)OC(C)(C)C)C2)no1 (single isomer, unassigned) [Example 756] | – | – | – | – | 1900 | – | 190 | 6000
C[C@@H]1CN(c2cc(=O)n(C)c3ccc(C#N)nc23)[C@@H](C)CN1C(c1ccc(F)cc1)c1nc(C2CN(C(=O)OC(C)(C)C)C2)no1 (single isomer, unassigned) [Example 757] | – | – | – | – | 160 | – | 23 | 1000
